Measured values from patent US20230228736A1, “IN VITRO HBV CORE PROTEIN ASSAY” (Janssen Sciences Ireland Unlimited Company, priority 2020, published 2023).
Like-named read-outs stand apart in the source and are kept apart here.

Columns and labels:
[1] = target: T1, intracellular capsids (HBV core protein) (Hepatitis B virus genotype D subtype ayw, UniProt P03146); assay: Capsid depletion assay: native polyacrylamide gel electrophoresis with immunoblotting for detection of capsids; assay type: cell-based; conditions: HepG2.117 cells treated for 3 days, native PAGE/western blot
T1 construct: withdrawal of doxycycline from the cell culture medium which results in expression of core and polymerase HBV proteins; expressed in transfected cells; host or cells: HepG2.117 (human hepatoma-derived, stably transfected with the HBV genome, Tet-off)
T1 sequence (P03146 whole entry): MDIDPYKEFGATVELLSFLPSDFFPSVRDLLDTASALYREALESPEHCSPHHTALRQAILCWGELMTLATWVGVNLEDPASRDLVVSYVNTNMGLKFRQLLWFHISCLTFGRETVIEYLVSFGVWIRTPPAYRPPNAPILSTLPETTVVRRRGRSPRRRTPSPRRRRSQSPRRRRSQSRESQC
Protocol: HepG2.117 cells cultured in 2% serum containing assay medium as described above were plated in a 12-well plate at a cell density of 500,000 cells/well and incubated at 37° C. and 5% CO2. After overnight incubation, cells were treated with test compound or DMSO for 72 hours at 37° C. and 5% CO2. Afterwards, cells were washed once with PBS and lysed with 300 μl 10 mM Tris-HCl (pH 7.6), 100 mM NaCl, 1 mM ethylenediaminetetraacetic acid (EDTA), and 0.1% NP-40 supplemented with 1× Halt™ Protease Inhibitor Cocktail (Thermo Fisher Scientific, Waltham, Mass.). After lysis of the cells at 37° C. for 10 minutes, cell debris was discarded by centrifugation at 5,000×g for 10 minutes. Supernatant was collected and protein concentration was determined using the DC (detergent compatible) protein assay (Bio-Rad, Hercules, Calif.). Of protein/sample, 2.2 μg was loaded on a NativePAGE™ Novex® 3-12% Bis-Tris Gel (Invitrogen, Waltham, Mass.) with electrophoresis performed at room temperature using NativePAGE™ Running Buffer and NativePAGE™ Cathode Additive. Proteins were transferred using the Novex® iBlot® Transfer Stack, PVDF, regular size kit followed by a standard immunoblotting procedure using primary polyclonal rabbit core antibody at a concentration of 16.25 μg/ml with overnight incubation. […]

[2] = target: T2, HBV core protein (Hepatitis B virus genotype D subtype ayw, UniProt P03146); assay: Cellular HBV core high-content imaging assay (cytosolic and nuclear aggregated core / core speckling); assay type: cell-based; conditions: HepG2.117 cells; for dose-dependent cytoplasmic and nuclear core speckling phenotype / Cytosolic aggregated core Median max effect at 25 μM (Range) / Nuclear aggregated core Median max effect at 25 μM (Range) / EC50: 72 h; for dose-dependent cytoplasmic and nuclear core speckling phenotype: 11 concentrations, robustness test; for Cytosolic aggregated core Median max effect at 25 μM (Range) / Nuclear aggregated core Median max effect at 25 μM (Range): normalized to 1 μM GLS-4 high control (100% effect); for EC50: median over inter-/intra-assay plate groups
T2 construct: withdrawal of doxycycline from the cell culture medium which results in expression of core and polymerase HBV proteins; expressed in transfected cells; host or cells: HepG2.117 (human hepatoma-derived, stably transfected with the HBV genome, Tet-off)
T2 sequence (P03146 whole entry): as above
Protocol: After trypsinization, HepG2.117 cells were washed once with phosphate buffered saline (PBS). Cells were centrifuged at 1,500 rpm for 5 minutes and divided in two fractions. The fraction that was used for the core-suppressed HepG2.117 cell controls (background control, BC) was resuspended in DMEM supplemented with 2% Tet-system-approved fetal calf serum (FCS; Clontech), 2 mM alanyl-glutamine, lx non-essential amino acids (NEAA; Sigma-Aldrich), and 100 ng/ml doxycycline to suppress core expression. The other fraction was resuspended in DMEM supplemented with 2% Tet-system-approved FCS, 2 mM alanyl-glutamine, and 1×NEAA and used for sample wells, the core-expressing low control wells (LC) and aggregated core-expressing high control wells (HC). 2,000 cells per well were seeded for the assay validation, while 1,500 cells per well were seeded in the cellular screening campaign. Test compound-containing 384-well black poly-D-lysine CellCarrier tissue culture treated plates with an optically clear bottom (Perkin Elmer, Waltham, Mass.) were used. Test compounds were used in dose range in the presence of 1% dimethyl sulfoxide (DMSO). Aggregated core expressing high control wells were treated with 1 μM GLS-4. Compound plates with seeded cells were incubated for 72 h at 37° C. and 5% CO2.
After about 72 hours, cells were fixed with 5% ultra-pure methanol-free formaldehyde (Polysciences, Warrington, Pa.) for 15 minutes and washed three times with PBS. Next, cells were permeabilized for 30 minutes using 0.5% Triton-X-100 (Sigma-Aldrich) dissolved in PBS and washed again three times with PBS. Cells were incubated for 1 hour with PBS containing 5% bovine serum albumin to block Fc receptors. Core protein was detected with primary monoclonal mouse core antibody at a concentration of 666 ng/ml or polyclonal rabbit core antibody at a concentration of 65 μg/ml in PBS containing 5% bovine serum albumin (Sigma-Aldrich). After overnight incubation at 4° C., cells were washed three times with PBS and primary antibody was detected with 2 μg/ml Alexa Fluor-488 goat anti-mouse or goat anti-rabbit secondary antibody. Nuclei and cytoplasm were co-stained using 2 μg/ml Hoechst 33258 (nuclei) and 500 ng/ml HCS CellMask™ Deep Red (entire cells) solution. After 1 hour of incubation at room temperature, cells were washed three times with PBS.
The Opera Phenix™ high-content screening system (Perkin Elmer) was used for automated imaging. A 405-nm laser with 100% power was used with an exposure time of 200 ms to excite Hoechst 33258 (emitting its fluorescent light at 461-nm); emission light was captured using a 435/480 nm emission filter. Simultaneously, HCS CellMask™ Deep Red signal (emitting its fluorescent light at 655-nm) was excited by a 635-nm laser with a 25 ms exposure time and a laser power reduced to 25%; red emitted light was captured using an emission filter of 650/760 nm. Alexa Fluor 488 fluorophores were excited using a 488-nm laser with 100% power and an exposure of 200 ms, whereby the emission filter 500/550 nm was chosen. This detection was performed independently from Hoechst and HCS CellMask™ Deep Red as the fluorescence spectrum of Hoechst overlaps with that of Alexa Fluor-488. A 20× water immersion objective with a numerical aperture of 1.0 was used for imaging of four fields per well.
Images were analyzed with a custom Acapella (Perkin Elmer) script. Nuclei identification was based on the Hoechst 33258 channel, cytoplasm segmentation was based on the HCS CellMask™ Deep Red channel and core protein intensity and texture features were calculated using the Alexa Fluor 488 channel. The cell count feature was used as a measure for cytotoxicity. […] The texture feature “SERSpot” at scale 1.0 was calculated in the nuclear and cytoplasm region of each cell to quantify aggregated core and averaged across all cells on the well-level.

Row | SMILES | depletion of intracellular capsids [1] | dose-dependent cytoplasmic and nuclear core speckling phenotype [2] | Cytosolic aggregated core Median max effect at 25 μM (Range) [2] | Nuclear aggregated core Median max effect at 25 μM (Range) [2] | phenotypic core immunostaining pattern ([2]; core expressing (-DOX), FIG. 2A/2B) | EC50 ([2]; read-out: Cytosolic aggregated core Median EC50 (μM) (Range)) | EC50 ([2]; read-out: Nuclear aggregated core Median EC50 (μM) (Range))
1 | COC(=O)C1=C(C)NC(c2ncc(F)cc2F)=N[C@H]1c1ccc(F)cc1Cl [Compound 14] | dose-dependent depletion of intracellular capsids | dose-dependent cytoplasmic and nuclear core speckling phenotype was observed | 68.1 | 139.2 | aggregated dot-like pattern of core proteins | – | –
2 | COC(=O)C1=C(CN2CCOCC2)NC(c2ccccn2)=NC1c1ccc(F)cc1Cl (stereo not shown) [Compound 5] | – | dose-dependent cytoplasmic and nuclear core speckling phenotype was observed | 72.1 | 86.2 | – | 0.078 µM | 0.085 µM
